Key:
Flavopiridol [1] = compound: T1, CN1CC[C@H](c2c(O)cc(O)c3c(=O)cc(-c4ccccc4Cl)oc23)[C@H](O)C1 [Flavopiridol]; assay: GR value, 72 h; higher = faster growth (1 = untreated, <0 = killing);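 also: breast cancer and non-malignant breast epithelial lines, nine half-log doses, viable cells counted by Hoechst and LIVE/DEAD dye imaging versus time-zero plates and DMSO controls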
THZ1 = compound: CN(C)C/C=C/C(=O)Nc1ccc(C(=O)Nc2cccc(Nc3ncc(Cl)c(-c4c[nH]c5ccccc45)n3)c2)cc1 [THZ1]; assay: as above
THZ531 = compound: CN(C)C/C=C/C(=O)Nc1ccc(C(=O)N2CCC[C@@H](Nc3ncc(Cl)c(-c4c[nH]c5ccccc45)n3)C2)cc1 [THZ531]; assay: as above
LEE011/Ribociclib = compound: CN(C)C(=O)c1cc2cnc(Nc3ccc(N4CCNCC4)cn3)nc2n1C1CCCC1 [LEE011/Ribociclib]; assay: as above
Neratinib/HKI272 = compound: CCOc1cc2ncc(C#N)c(Nc3ccc(OCc4ccccn4)c(Cl)c3)c2cc1NC(=O)/C=C/CN(C)C [Neratinib/HKI272]; assay: as above
BSJ-03-123 = compound: CC(=O)c1c(C)c2cnc(Nc3ccc(N4CCN(CCOCCOCCOCCNC(=O)COc5cccc6c5C(=O)N(C5CCC(=O)NC5=O)C6=O)CC4)cn3)nc2n(C2CCCC2)c1=O [BSJ-03-123]; assay: as above
[2] = compound: CC(=O)c1c(C)c2cnc(Nc3ccc(N4CCNCC4)cn3)nc2n(C2CCCC2)c1=O; assay: as above
YKL-5-124 = compound: C=CC(=O)Nc1ccc(C(=O)Nc2[nH]nc3c2CN(C(=O)N[C@H](CN(C)C)c2ccccc2)C3(C)C)cc1 [YKL-5-124]; assay: as above
[3] = compound: CCc1cnn2c(NCc3ccc[n+]([O-])c3)cc(N3CCCC[C@H]3CCO)nc12; assay: as above
[4] = compound: CCN1CCN(Cc2ccc(Nc3ncc(F)c(-c4cc(F)c5nc(C)n(C(C)C)c5c4)n3)nc2)CC1; assay: as above
Flavopiridol [5] = compound: T1, Flavopiridol
ABT-737 = compound: CN(C)CC[C@H](CSc1ccccc1)Nc1ccc(S(=O)(=O)NC(=O)c2ccc(N3CCN(Cc4ccccc4-c4ccc(Cl)cc4)CC3)cc2)cc1[N+](=O)[O-] [ABT-737]
[6] = compound: CO[C@@H](C)Cn1c(=O)n(C)c2cnc3ccc(-c4cncc(C(C)(C)O)c4)cc3c21
Taselisib/GDC0032 = compound: Cc1nc(-c2cn3c(n2)-c2ccc(-c4cnn(C(C)(C)C(N)=O)c4)cc2OCC3)n(C(C)C)n1 [Taselisib/GDC0032]
Saracatinib/AZD0530 = compound: CN1CCN(CCOc2cc(OC3CCOCC3)c3c(Nc4c(Cl)ccc5c4OCO5)ncnc3c2)CC1 [Saracatinib/AZD0530]
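For GR50, 72 h in this document: breast cancer and non-malignant breast epithelial cell lines, Deep Dye Drop or Dye Drop imaging, nine half-log doses, GR normalized to time-zero plates and DMSO-only controls.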

HCC1954
GR value (Flavopiridol [1]; 0.0001 µM): 1.01 GR
GR value (Flavopiridol [1]; 0.0003162 µM): 0.967 GR
GR value (Flavopiridol [1]; 0.001 µM): 0.962 GR
GR value (Flavopiridol [1]; 0.003162 µM): 0.996 GR
GR value (Flavopiridol [1]; 0.01 µM): 0.907 GR
GR value (Flavopiridol [1]; 0.03162 µM): 0.928 GR
GR value (Flavopiridol [1]; 0.1 µM): 0.613 GR
GR value (Flavopiridol [1]; 0.3162 µM): 0.0144 GR
GR value (Flavopiridol [1]; 1 µM): -0.52 GR
GR value (THZ1; 0.0001 µM): 1.03 GR
GR value (THZ1; 0.0003162 µM): 0.958 GR
GR value (THZ1; 0.001 µM): 1.01 GR
GR value (THZ1; 0.003162 µM): 1 GR
GR value (THZ1; 0.01 µM): 0.939 GR
GR value (THZ1; 0.03162 µM): 0.85 GR
GR value (THZ1; 0.1 µM): 0.491 GR
GR value (THZ1; 0.3162 µM): -0.0278 GR
GR value (THZ1; 1 µM): -0.507 GR
GR value (THZ531; 0.0001 µM): 1.04 GR
GR value (THZ531; 0.0003162 µM): 1.06 GR
GR value (THZ531; 0.001 µM): 0.921 GR
GR value (THZ531; 0.003162 µM): 1.04 GR
GR value (THZ531; 0.01 µM): 1.07 GR
GR value (THZ531; 0.03162 µM): 1.05 GR
GR value (THZ531; 0.1 µM): 0.873 GR
GR value (THZ531; 0.3162 µM): 0.66 GR
GR value (THZ531; 1 µM): -0.297 GR
GR value (LEE011/Ribociclib; 0.001 µM): 0.804 GR
GR value (LEE011/Ribociclib; 0.003162 µM): 0.771 GR
GR value (LEE011/Ribociclib; 0.01 µM): 0.811 GR
GR value (LEE011/Ribociclib; 0.03162 µM): 0.771 GR
GR value (LEE011/Ribociclib; 0.1 µM): 0.655 GR
GR value (LEE011/Ribociclib; 0.3162 µM): 0.609 GR
GR value (LEE011/Ribociclib; 1 µM): 0.654 GR
GR value (LEE011/Ribociclib; 3.162 µM): 0.687 GR
GR value (LEE011/Ribociclib; 10 µM): 0.539 GR
GR value (Neratinib/HKI272; 0.0003162 µM): 1.04 GR
GR value (Neratinib/HKI272; 0.001 µM): 1.05 GR
GR value (Neratinib/HKI272; 0.003162 µM): 0.938 GR
GR value (Neratinib/HKI272; 0.01 µM): 0.859 GR
GR value (Neratinib/HKI272; 0.03162 µM): 0.533 GR
GR value (Neratinib/HKI272; 0.1 µM): 0.389 GR
GR value (Neratinib/HKI272; 0.3162 µM): 0.27 GR
GR value (Neratinib/HKI272; 1 µM): 0.119 GR
GR value (Neratinib/HKI272; 3.162 µM): -0.0858 GR
GR value (BSJ-03-123; 0.001 µM): 0.886 GR
GR value (BSJ-03-123; 0.003162 µM): 0.859 GR
GR value (BSJ-03-123; 0.01 µM): 0.812 GR
GR value (BSJ-03-123; 0.03162 µM): 0.745 GR
GR value (BSJ-03-123; 0.1 µM): 0.689 GR
GR value (BSJ-03-123; 0.3162 µM): 0.746 GR
GR value (BSJ-03-123; 1 µM): 0.558 GR
GR value (BSJ-03-123; 3.162 µM): 0.473 GR
GR value (BSJ-03-123; 10 µM): -0.0177 GR
GR value ([2]; 0.0003162 µM): 1.14 GR
GR value ([2]; 0.001 µM): 1.02 GR
GR value ([2]; 0.003162 µM): 1.07 GR
GR value ([2]; 0.01 µM): 0.905 GR
GR value ([2]; 0.03162 µM): 0.863 GR
GR value ([2]; 0.1 µM): 0.733 GR
GR value ([2]; 0.3162 µM): 0.611 GR
GR value ([2]; 1 µM): 0.57 GR
GR value ([2]; 3.162 µM): 0.523 GR
GR value (YKL-5-124; 0.001 µM): 0.224 GR
GR value (YKL-5-124; 0.003162 µM): 0.154 GR
GR value (YKL-5-124; 0.01 µM): 0.0574 GR
GR value (YKL-5-124; 0.03162 µM): 0.0823 GR
GR value (YKL-5-124; 0.1 µM): -0.0214 GR
GR value (YKL-5-124; 0.3162 µM): 0.0013 GR
GR value (YKL-5-124; 1 µM): -0.0774 GR
GR value (YKL-5-124; 3.162 µM): -0.0189 GR
GR value (YKL-5-124; 10 µM): -0.143 GR
GR value ([3]; 0.0001 µM): 0.941 GR
GR value ([3]; 0.0003162 µM): 1.04 GR
GR value ([3]; 0.001 µM): 1.05 GR
GR value ([3]; 0.003162 µM): 1.12 GR
GR value ([3]; 0.01 µM): 0.69 GR
GR value ([3]; 0.03162 µM): -0.352 GR
GR value ([3]; 0.1 µM): -0.474 GR
GR value ([3]; 0.3162 µM): -0.472 GR
GR value ([3]; 1 µM): -0.441 GR
GR value ([4]; 0.001 µM): 1.01 GR
GR value ([4]; 0.003162 µM): 0.941 GR
GR value ([4]; 0.01 µM): 0.844 GR
GR value ([4]; 0.03162 µM): 0.698 GR
GR value ([4]; 0.1 µM): 0.584 GR
GR value ([4]; 0.3162 µM): 0.503 GR
GR value ([4]; 1 µM): 0.36 GR
GR value ([4]; 3.162 µM): 0.193 GR
GR value ([4]; 10 µM): -0.5 GR
GR50, 72 h (Flavopiridol [5]): 0.128 µM
GR50, 72 h (ABT-737): 9.94 µM
GR50, 72 h [6]: < 0.001 µM
GR50, 72 h (Taselisib/GDC0032): 0.00701 µM
GR50, 72 h (Saracatinib/AZD0530): 2.12 µM

Source: the supplement of paper PMC9663587
